These results are taken from PMC8804275 (IBRO Neuroscience Reports, 2022).

Assay [1] addresses T1, hCB1R (Homo sapiens, UniProt P21554). Kind of assay: HitHunter cAMP assay, inhibition of forskolin-stimulated cAMP. It counts as cell-based. The following applies: 10 µM FSK, 90 min, 37 °C; agonism mode without CP55,940; allosteric ago-PAM.
In assay [2] the target is T1, hCB1R. Kind of assay: PathHunter βarrestin2 recruitment assay. Format: cell-based. The following applies: 90 min, 37 °C; agonism mode without CP55,940; allosteric ago-PAM. For orientation: Recruitment of arrestin is a read-out of receptor activation apart from second messengers.

A value given as a limit tells only on which side of the number the result lay.

T1 sequence (P21554 whole entry): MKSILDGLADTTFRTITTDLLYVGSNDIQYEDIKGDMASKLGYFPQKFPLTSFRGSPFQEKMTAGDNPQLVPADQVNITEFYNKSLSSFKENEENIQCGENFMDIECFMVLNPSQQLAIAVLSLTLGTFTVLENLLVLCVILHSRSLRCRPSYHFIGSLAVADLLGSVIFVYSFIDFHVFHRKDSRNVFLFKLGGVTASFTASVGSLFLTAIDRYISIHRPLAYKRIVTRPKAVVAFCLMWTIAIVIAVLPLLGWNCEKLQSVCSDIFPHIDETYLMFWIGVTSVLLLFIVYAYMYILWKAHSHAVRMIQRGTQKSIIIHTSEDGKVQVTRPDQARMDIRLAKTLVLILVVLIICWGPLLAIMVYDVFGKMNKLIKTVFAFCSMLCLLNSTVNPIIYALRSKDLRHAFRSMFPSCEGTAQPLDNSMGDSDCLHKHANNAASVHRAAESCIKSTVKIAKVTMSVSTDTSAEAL

One may read the EC50 as the midpoint of the concentration-response curve. A higher EC50 goes with lower potency in that assay. For the compound `O=[N+]([O-])CC(c1ccccc1F)c1c(-c2cccc(F)c2)[nH]c2c(F)cccc12` (stereo not shown) [GAT593], the 50% effective concentration (EC50) at hCB1R [1] is 45 nM; on hCB1R [2] it was more than 10000 nM.
For the compound GAT591, the results for the EC50 on hCB1R [1] and on hCB1R [2] were 4.1 nM and 1300 nM, respectively.
